Read-outs that look alike come from different tables or passages of the source. Where a SMILES comes first, the peptide text is derived from it. The star is where a group is joined. Palmitoyl = CCCCCCCCCCCCCCCC(=O)*
What was measured:
Format in all cases: cell-based
[1] = test system: LP40-V11 pseudovirus (HIV-1 NL4-3 Env mutant); details: for IC50: LP40-V11 (Env selected at LP-40 20 µM), TZM-bl cells, 48 h, luciferase, mean ± SD, triplicate, repeated three times
Procedure: (§1) To simulate the sequence changes of viral resistance genes under different drug concentration pressures, we constructed the Env genes under different drug concentration pressures in the PCDNA3.1 vector and obtained a series of mutations. […] T20-V 6~12, T20-V 13~14, and T 20-V 15~18 were constructed at concentrations of 200 µM (P21), 400 µM (P24), and 2000 µM (P32), respectively. Similarly, the LP-40 pressure concentrations were 0.3 µM, 8 µM, 20 µM, and 200 µM, respectively, and the constructs were numbered LP40-V 1~5, LP40-V 6~8, LP40-V 9~11, and LP40-V 12~15. Resistance mutations will cause varying levels of damage to the function of the pseudoviral envelope proteins. Here, we explored how serial mutations affect the function of viral envelope proteins. Based on this problem, we performed a single round of quantitative P24-infection experiments, packaging the pseudovirus with a previously constructed series of mutant plasmids. We compared the invasion ability of the HIV-1 wild-type and mutant pseudoviruses toward target cells under the same P24 content (using the invasion capacity of each subtype as 100%).
(§2) The infectivity of HIV Env mutants and the inhibitory activities of membrane fusion inhibitors on mutants in TZM-bl cells were measured using a single-cycle infection assay as described previously. Briefly, the HIV pseudovirus was packed using an Env-coding plasmid, and pSG3ΔEnv was co-transfected into HEK293T cells. pSG3ΔEnv encodes an Env-defective, luciferase-expressing HIV-1 genome. After the pseudoviruses were harvested and filtrated, the amount of pseudoviruses was fixed via P24 antigen, and their infectivity was determined in TZM-bl cells. In order to measure the inhibitory activities of the inhibitors, inhibitors diluted serially 3-fold were mixed with an equal volume of pseudoviruses, and then 100 µL 1 × 10^5/mL TZM-bl cells were added to the mixture and incubated at 37 °C with 5% CO2 for 48 h. After that, TZM-bl cells were lysed using reporter lysis buffer, and IC50 values were calculated according to luciferase activity measured by luciferase assay reagents and a luminescence counter (Promega, Madison, WI, USA).

[2] = test system: LP40-V13 pseudovirus (HIV-1 NL4-3 Env mutant); details: for IC50: LP40-V13 (Env selected at LP-40 200 µM), TZM-bl cells, 48 h, luciferase, mean ± SD, triplicate, repeated three times
Procedure: as §1, §2

[3] = test system: LP40-V14 pseudovirus (HIV-1 NL4-3 Env mutant); details: for IC50: LP40-V14 (Env selected at LP-40 200 µM), TZM-bl cells, 48 h, luciferase, mean ± SD, triplicate, repeated three times
Procedure: as §1, §2

[4] = test system: LP40-V8 pseudovirus (HIV-1 NL4-3 Env mutant); details: for IC50: LP40-V8 (Env selected at LP-40 8 µM), TZM-bl cells, 48 h, luciferase, mean ± SD, triplicate, repeated three times
Procedure: as §1, §2

[5] = test system: T20-V1 pseudovirus (HIV-1 NL4-3 Env mutant); details: for IC50: T20-V1 (Env selected at T20 12 µM, P9), TZM-bl cells, 48 h, luciferase, mean ± SD, triplicate, repeated three times
Procedure: as §1, §2

[6] = test system: T20-V13 pseudovirus (HIV-1 NL4-3 Env mutant); details: for IC50: T20-V13 (Env selected at T20 400 µM, P24), TZM-bl cells, 48 h, luciferase, mean ± SD, triplicate, repeated three times
Procedure: as §1, §2

[7] = test system: T20-V15 pseudovirus (HIV-1 NL4-3 Env mutant); details: for IC50: T20-V15 (Env selected at T20 2000 µM, P32), TZM-bl cells, 48 h, luciferase, mean ± SD, triplicate, repeated three times
Procedure: as §1, §2

[8] = test system: T20-V16 pseudovirus (HIV-1 NL4-3 Env mutant); details: for IC50: T20-V16 (Env selected at T20 2000 µM, P32), TZM-bl cells, 48 h, luciferase, mean ± SD, triplicate, repeated three times
Procedure: as §1, §2

[9] = test system: T20-V2 pseudovirus (HIV-1 NL4-3 Env mutant); details: for IC50: T20-V2 (Env selected at T20 12 µM, P9), TZM-bl cells, 48 h, luciferase, mean ± SD, triplicate, repeated three times
Procedure: as §1, §2

[10] = test system: T20-V4 pseudovirus (HIV-1 NL4-3 Env mutant); details: for IC50: T20-V4 (Env selected at T20 12 µM, P9), TZM-bl cells, 48 h, luciferase, mean ± SD, triplicate, repeated three times
Procedure: as §1, §2

[11] = test system: T20-V6 pseudovirus (HIV-1 NL4-3 Env mutant); details: for IC50: T20-V6 (Env selected at T20 200 µM, P21), TZM-bl cells, 48 h, luciferase, mean ± SD, triplicate, repeated three times
Procedure: as §1, §2

[12] = test system: T20-V8 pseudovirus (HIV-1 NL4-3 Env mutant); details: T20-V8 (Env selected at T20 200 µM, P21); TZM-bl cells, 48 h, luciferase; mean ± SD, triplicate, repeated three times
Procedure: as §1, §2

[13] = test system: T20- and LP40-resistant mutant pseudoviruses of HIV-1 NL4-3; details: for Largest decrease in susceptibility among LP-40-resistant strains / Largest decrease in susceptibility among T20-resistant strains / Decrease in sensitivity, range over mutants / Decrease in sensitivity, range over strains / Decrease in sensitivity: relative to WT
Procedure: as §1
The frequency of the T20-V8 strain was 1/12. From sequence alignment, except for the L33S, which appeared in all the sequences, the new mutation site of D36G/V38A/N42T was also introduced.
Among them, LP-40-inhibited LP40-V11 reached 3.3 µM. When the concentration of LP-40 rose to 200 µM, I37T disappeared, and L33S/D36G/V38A/N42T/I69V became the main mutation point.
The mutation G20V only appeared in T20-induced drug resistance, and the frequency was low. […] This mutation point N126K appeared in LP-40-induced drug resistance with a high frequency.
as §2

[14] = six point-mutant pseudoviruses L33S, I37T, V38A, V38T, N42T, N43S
[15] = six point-mutant pseudoviruses L33S, I37T, V38A, V38T, N42T, N43S, read-out: IC50, range over mutants

For Enfuvirtide, the IC50 [1] was 4.35 ± 0.522 µM, the IC50 [2] was 5.17 ± 2.46 µM and the IC50 [3] was 4.91 ± 2 µM. For the same compound, the IC50 [4] was 1.15 ± 0.137 µM, the IC50 [5] was 0.0577 ± 0.00723 µM and the IC50 [6] was 4.01 ± 0.571 µM. It also gave an IC50 [7] of 2.09 ± 0.248 µM, an IC50 [8] of 1.74 ± 0.229 µM and an IC50 [9] of 0.147 ± 0.0394 µM. It also gave an IC50 [10] of 0.0531 ± 0.0149 µM, an IC50 [11] of 3.85 ± 0.516 µM and an IC50 [12] of 5.28 ± 1.1 µM. The “Largest decrease in susceptibility among LP-40-resistant strains” value [13] was 107 fold, the “Largest decrease in susceptibility among T20-resistant strains” value [13] was “up to 112 fold” and the “Decrease in sensitivity, range over mutants” value [13, 14] was 6–51 fold. For the same compound, the IC50 [13, 15] was 0.41 to 3.4 µM, the “Decrease in sensitivity, range over strains” value (shortened to “Decrease … over strains”) ([13]; strains induced at T20 2000 µM) was 32- to 112 fold and the Decrease in sensitivity ([13]; viral strains induced at T20 200 µM) was “more than 50 fold”. For the same compound, the IC50 ([13]; viral strains induced at T20 200 µM, read-out: IC50, range over strains) was 2.8 to 5.3 µM and the “Decrease … over strains” value ([13]; virus strain induced at T20 12 µM) was “one- to two”.

`CCCCCCCCCCCCCCCC(=O)NCCCC[C@H](NC(=O)[C@H](CC(=O)O)NC(=O)[C@H](CC(C)C)NC(=O)[C@H](CCC(=O)O)NC(=O)[C@H](CC(C)C)NC(=O)[C@H](CC(C)C)NC(=O)[C@H](CCC(=O)O)NC(=O)[C@H](CCC(N)=O)NC(=O)[C@H](CCC(=O)O)NC(=O)[C@H](CC(N)=O)NC(=O)[C@H](CCCCN)NC(=O)[C@H](CCC(=O)O)NC(=O)[C@H](CCC(N)=O)NC(=O)[C@H](CCC(N)=O)NC(=O)[C@H](CC(N)=O)NC(=O)[C@H](CCC(N)=O)NC(=O)[C@H](CO)NC(=O)[C@H](CCC(=O)O)NC(=O)[C@H](CCC(=O)O)NC(=O)[C@@H](NC(=O)[C@H](CC(C)C)NC(=O)[C@H](CO)NC(=O)[C@H](Cc1c[nH]cn1)NC(=O)[C@@H](NC(=O)[C@H](CC(C)C)NC(=O)[C@H](CO)NC(=O)[C@@H](NC(=O)[C@H](Cc1ccc(O)cc1)NC(C)=O)[C@@H](C)O)[C@@H](C)CC)[C@@H](C)CC)C(N)=O` [LP-40] (Ac-YTSLIHSLIEESQNQQEKNEQELLELDK(Palmitoyl)-NH2) was tested, and the IC50 [1] was 3.33 ± 0.978 µM, the “Fold change in IC50” value ([1]; LP40-V11 relative to WT NL4-3, Table 1) was 112.32 fold and the IC50 [2] was > 6.25 µM. For the same compound, the “Fold change in IC50” value ([2]; LP40-V13 relative to WT NL4-3, Table 1) was >227.43 fold, the IC50 [3] was > 6.25 µM and the “Fold change in IC50” value ([3]; LP40-V14 relative to WT NL4-3, Table 1) was >227.43 fold. For the same compound, the IC50 [4] was 2.88 ± 1.07 µM, the “Fold change in IC50” value ([4]; LP40-V8 relative to WT NL4-3, Table 1) was 97.17 fold and the IC50 [5] was 0.0401 ± 0.00862 µM. The “Fold change in IC50” value ([5]; T20-V1 relative to WT NL4-3, Table 1) was 1.35 fold, the IC50 [6] was 3.19 ± 0.207 µM and the “Fold change in IC50” value ([6]; T20-V13 relative to WT NL4-3, Table 1) was 107.32 fold. The IC50 [7] was > 6.25 µM, the “Fold change in IC50” value ([7]; T20-V15 relative to WT NL4-3, Table 1) was >227.43 fold and the IC50 [8] was > 6.25 µM. For the same compound, the “Fold change in IC50” value ([8]; T20-V16 relative to WT NL4-3, Table 1) was >227.43 fold, the IC50 [9] was 0.0592 ± 0.0159 µM and the “Fold change in IC50” value ([9]; T20-V2 relative to WT NL4-3, Table 1) was 2.00 fold. For the same compound, the IC50 [10] was 0.0766 ± 0.0197 µM, the “Fold change in IC50” value ([10]; T20-V4 relative to WT NL4-3, Table 1) was 2.58 fold and the IC50 [11] was 3.51 ± 0.631 µM. The “Fold change in IC50” value ([11]; T20-V6 relative to WT NL4-3, Table 1) was 118.37 fold, the IC50 [12] was > 6.25 µM and the “Largest decrease in susceptibility among LP-40-resistant strains” value [13] was “over 227 fold”. The “Largest decrease in susceptibility among T20-resistant strains” value [13] was 227 fold, the “Decrease … over strains” value ([13]; first group of LP-40-resistant strains (LP40-V1, LP40-V2)) was 1.5–12.6 fold and the “Decrease in sensitivity, range over mutants” value [13, 14] was 6–111 fold. The IC50 [13, 15] was 0.2 to 3.5 µM, the Decrease in sensitivity ([13]; strains induced at LP-40 200 µM) was “over 227 fold” and the Decrease in sensitivity ([13]; viral strains induced at LP-40 8 µM and 20 µM) was “more than 92 fold”. It also gave an IC50 ([13]; viral strains induced at LP-40 8 µM and 20 µM, read-out: IC50, range over strains) of 2.8 to 3.3 µM.

Source: PMC9223764, “In Vitro Selection and Characterization of HIV-1 Variants with Increased Resistance to LP-40, Enfuvirtide-Based Lipopeptide Inhibitor” (International Journal of Molecular Sciences, 2022)
